Assay: Safety and tolerability in the essential tremor clinical study
Assay type: in vivo, human
Conditions: 20 mg then 40 mg once a day, 14 days (formulation 5), emerging data

CC(C)(C)NC(=O)CN1CCC(CNC(=O)c2cc(F)cc(Cl)c2)CC1 [compound of formula (I)]
tolerability: well tolerated

From patent US12077502B2, “Formulations of T-type calcium channel modulators and methods of use thereof” (PRAXIS PRECISION MEDICINES, INC., priority 2019, dated 2024)
